{
  "source": "patent US20210262032A1",
  "about": "“DETERMINING RESPONDERS TO INFLAMMATION TREATMENT” (RAMBAM MED-TECH LTD., priority 2018, published 2021)",
  "key": {"TNFα expression": {"test_system": "TNFα expression", "assay": "Whole blood treated with Vedolizumab, LPA or combination; TNFα expression by qPCR", "format": "cell-based, human", "details": "whole blood from healthy donors, 3 hours at 37 degrees, Vedolizumab 600 μg/ml, LPA 1 μM, fold-induction over untreated control", "protocol": "FIGS. 11A-B: […] synergistic effect between Vedolizumab and LPA in-Vitro. (11A-B) Bar charts showing inflammatory cytokine expression including (11A) TNFα and (11B) IL-1β post incubation with Vedolizumab (600 μg/ml), LPA (1 μM) and co-incubation of the two substances, using qPCR for quantification. Un-treated whole blood basal expression served as control and values were expressed as fold-induction over control. Data were pooled from three independent experiments. Significance was calculated using Wilcoxon-test (two-sided; μ=1)\nThe combined effect of Vedolizumab and LPA was next tested on blood cells. Whole blood from healthy donors was treated with Vedolizumab, LPA or a combination for 3 hours at 37 degrees and pro-inflammatory cytokine expression was measured. Untreated whole blood was used as a control. […] This may be due to the fact that there are 6 LPA receptors and it appears that antagonism of only one of them is not sufficient to completely counter act the effect of the LPA."}, "[1]": {"test_system": "Tregs in intestinal tissue", "assay": "Estimated Treg proportion scores in intestinal tissue by xCell deconvolution of public dataset GEO73661", "format": "in vivo, human", "details": "post-treatment vs baseline, xCell estimate from GEO73661", "protocol": "Deconvolved estimated Tregs proportion scores in intestinal tissue and peripheral blood at baseline and in different time points post-treatment in responding and non-responding patients were evaluated usind xCell.\nxCell, which is a computational deconvolution method based on ssGSEA enrichment of cell specific signatures for estimation of abundance scores of immune cell types from the gene expression data, was used. Only cells that had non-zero values in at least 75% of the samples were included.\nEstimated cell proportions in intestinal tissue were tested using a publicly available dataset (GEO73661). […] Although Treg accumulation is observed in blood of non-responders, tissue Tregs are not reduced."}, "IBD (UC and CD) patients": {"test_system": "IBD (UC and CD) patients", "assay": "Primary clinical response to Vedolizumab in IBD patients, cohort 1", "format": "in vivo, human", "details": "number of patients with 0—None / 1—partial / 2—full response; for clinical 2 w (0/1/2): 2 weeks; for clinical 14 w (0/1/2): 14 weeks; for clinical 26 w (0/1/2): 26 weeks; for clinical 52 w (0/1/2): 52 weeks", "excerpt": "The exploratory study cohort consisted of 73 whole blood samples from 22 IBD (UC and CD) patients, who received Vedolizumab treatment at the Rambam Health Care Campus (RHCC) and met the study inclusion criteria. Patients that had past exposure to Vedolizumab, or patients who had active infection including febrile diseases or intra-abdominal or perianal abscess were excluded.\nSamples were collected at the following time-points: pretreatment, 2 weeks and 14 weeks post first treatment and following one year of treatment for those patients who received long-term care. Patients were classified for response by clinical score after one-year follow-up and were clinically characterized as detailed in table 2."}},
  "data": [
    {"substance": "lysophosphatidic acid [LPA]", "values": [
      {"measurement": "TNFα expression", "setting": "TNFα expression", "result": "neither Vedolizumab nor LPA alone had an effect"}
    ]},
    {"substance": "Vedolizumab", "values": [
      {"measurement": "TNFα expression", "setting": "TNFα expression", "result": "neither Vedolizumab nor LPA alone had an effect"},
      {"measurement": "Tregs frequency in intestinal tissue", "setting": "[1]; non-responders", "result": "unaffected"},
      {"measurement": "Tregs frequency in intestinal tissue", "setting": "[1]; responding patients", "result": "reduces Tregs frequency"},
      {"measurement": "clinical 2 w (0/1/2)", "setting": "IBD (UC and CD) patients; Non-responders (n = 10)", "result": "5/5/0"},
      {"measurement": "clinical 14 w (0/1/2)", "setting": "IBD (UC and CD) patients; Non-responders (n = 10)", "result": "7/2/1"},
      {"measurement": "clinical 26 w (0/1/2)", "setting": "IBD (UC and CD) patients; Non-responders (n = 10)", "result": "8/2/0"},
      {"measurement": "clinical 52 w (0/1/2)", "setting": "IBD (UC and CD) patients; Non-responders (n = 10)", "result": "10/0/0"},
      {"measurement": "clinical 2 w (0/1/2)", "setting": "IBD (UC and CD) patients; Responders (n = 12)", "result": "1/7/0"},
      {"measurement": "clinical 14 w (0/1/2)", "setting": "IBD (UC and CD) patients; Responders (n = 12)", "result": "1/5/2"},
      {"measurement": "clinical 26 w (0/1/2)", "setting": "IBD (UC and CD) patients; Responders (n = 12)", "result": "0/4/5"},
      {"measurement": "clinical 52 w (0/1/2)", "setting": "IBD (UC and CD) patients; Responders (n = 12)", "result": "0/0/12"}
    ]}
  ]
}
